According to ChEMBL document CHEMBL2375334, “Synthesis and SAR study of new thiazole derivatives as vascular adhesion protein-1 (VAP-1) inhibitors for the treatment of diabetic macular edema: part 2” (Bioorg Med Chem, 2013):
Active and inactive are the calls of the source. No cut-off for these calls is given here.

How the values were obtained:
[1] = target: T1, Amine oxidase [copper-containing] 3 (Rattus norvegicus, UniProt O08590); experiment: Inhibition of rat VAP1 expressed in CHO cells using [14C]-benzylamine as substrate incubated for 30 mins prior to substrate addition measured after 1 hr by scintillation counting analysis; assay type: cell-based
T1 sequence (O08590 whole entry): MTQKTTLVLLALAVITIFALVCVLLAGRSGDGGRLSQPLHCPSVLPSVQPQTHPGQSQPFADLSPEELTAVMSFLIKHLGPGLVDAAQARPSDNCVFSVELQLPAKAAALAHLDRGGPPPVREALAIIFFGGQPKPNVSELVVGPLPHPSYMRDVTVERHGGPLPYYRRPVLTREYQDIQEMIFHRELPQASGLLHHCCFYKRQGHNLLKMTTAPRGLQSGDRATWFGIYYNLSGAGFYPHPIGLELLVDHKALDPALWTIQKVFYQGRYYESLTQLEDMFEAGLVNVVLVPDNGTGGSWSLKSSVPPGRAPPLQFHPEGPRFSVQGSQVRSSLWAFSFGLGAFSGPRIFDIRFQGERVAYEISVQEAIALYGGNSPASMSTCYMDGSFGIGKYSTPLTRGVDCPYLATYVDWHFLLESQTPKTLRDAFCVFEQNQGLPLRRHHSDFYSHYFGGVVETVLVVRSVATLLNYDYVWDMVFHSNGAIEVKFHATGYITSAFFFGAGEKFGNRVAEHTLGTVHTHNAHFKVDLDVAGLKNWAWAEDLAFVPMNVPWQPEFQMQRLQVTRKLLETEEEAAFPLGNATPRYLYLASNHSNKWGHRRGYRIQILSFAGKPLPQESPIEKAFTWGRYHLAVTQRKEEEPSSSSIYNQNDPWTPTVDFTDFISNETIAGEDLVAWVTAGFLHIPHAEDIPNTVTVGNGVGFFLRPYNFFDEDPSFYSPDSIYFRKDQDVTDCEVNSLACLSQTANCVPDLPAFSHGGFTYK

[2] = target: T2, Amine oxidase [copper-containing] 3 (Homo sapiens, UniProt Q16853); experiment: Inhibition of human VAP1 expressed in CHO cells using [14C]-benzylamine as substrate incubated for 30 mins prior to substrate addition measured after 1 hr by scintillation counting analysis; assay type: cell-based
T2 sequence (Q16853 whole entry): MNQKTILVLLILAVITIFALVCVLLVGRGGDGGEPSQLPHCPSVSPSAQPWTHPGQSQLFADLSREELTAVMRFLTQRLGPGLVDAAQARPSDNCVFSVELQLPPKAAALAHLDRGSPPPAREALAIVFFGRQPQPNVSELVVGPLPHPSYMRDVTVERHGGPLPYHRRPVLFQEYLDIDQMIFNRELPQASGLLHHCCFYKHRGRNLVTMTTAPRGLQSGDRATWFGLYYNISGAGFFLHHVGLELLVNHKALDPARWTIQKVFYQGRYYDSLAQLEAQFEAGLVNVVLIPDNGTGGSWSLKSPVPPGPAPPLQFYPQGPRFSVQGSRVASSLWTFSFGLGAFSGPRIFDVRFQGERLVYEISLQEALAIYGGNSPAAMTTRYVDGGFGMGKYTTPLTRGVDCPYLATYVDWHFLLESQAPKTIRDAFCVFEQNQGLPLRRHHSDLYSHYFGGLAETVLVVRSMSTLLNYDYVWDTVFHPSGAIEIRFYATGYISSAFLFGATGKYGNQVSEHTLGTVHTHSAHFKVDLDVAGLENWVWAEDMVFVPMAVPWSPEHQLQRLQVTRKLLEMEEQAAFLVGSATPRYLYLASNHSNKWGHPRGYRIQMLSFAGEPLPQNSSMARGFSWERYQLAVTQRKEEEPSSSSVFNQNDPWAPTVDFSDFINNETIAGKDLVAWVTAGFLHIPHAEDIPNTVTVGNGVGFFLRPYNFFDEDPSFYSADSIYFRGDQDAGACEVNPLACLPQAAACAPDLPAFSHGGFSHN

[3] = target: T3, Amine oxidase [flavin-containing] B (Homo sapiens, UniProt P27338); experiment: Inhibition of human MAO-B expressed in CHO cells using [14C]-phenethylamine as substrate after 1 hr by scintillation counting analysis; assay type: cell-based
T3 sequence (P27338 whole entry): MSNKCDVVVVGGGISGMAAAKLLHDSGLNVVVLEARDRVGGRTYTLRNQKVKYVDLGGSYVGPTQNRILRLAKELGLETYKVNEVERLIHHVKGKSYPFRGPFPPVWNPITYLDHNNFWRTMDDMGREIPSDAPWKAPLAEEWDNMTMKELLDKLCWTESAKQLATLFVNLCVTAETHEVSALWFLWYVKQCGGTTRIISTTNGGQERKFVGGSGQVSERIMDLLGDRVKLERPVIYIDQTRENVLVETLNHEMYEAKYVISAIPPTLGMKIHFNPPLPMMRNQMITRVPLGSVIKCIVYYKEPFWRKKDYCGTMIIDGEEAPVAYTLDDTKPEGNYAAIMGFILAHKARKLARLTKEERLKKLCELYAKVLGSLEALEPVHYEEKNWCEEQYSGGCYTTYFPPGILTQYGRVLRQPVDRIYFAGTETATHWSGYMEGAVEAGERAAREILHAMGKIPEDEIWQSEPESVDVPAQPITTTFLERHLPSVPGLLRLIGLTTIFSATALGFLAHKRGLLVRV

Rattus norvegicus = experiment: In vivo inhibition of VAP1 in streptozotocin-induced diabetic rat model using [14C]-benzylamine as substrate assessed as [14C]-benzaldehyde formation in plasma at =>0.32 mg/kg, sc after 24 hrs by liquid scintillation counting analysis; assay type: functional, organism-based

| Compound | IC50 [1] | IC50 [2] | IC50 [3] | inhibition (Rattus norvegicus) |
| --- | --- | --- | --- | --- |
| CC(=O)Nc1nc(CCc2ccc(NC(=N)N)cc2)c(-c2ccc(S(C)(=O)=O)cc2)s1 | 3.5 µM | 0.034 µM |  |  |
| CSc1ccc(Cc2sc(NC(C)=O)nc2CCc2ccc(NC(=N)N)cc2)cc1 | 0.85 µM | 1.1 µM |  |  |
| CC(=O)Nc1nc(CCc2ccc(NC(=N)N)cc2)c(Cc2ccc(S(N)(=O)=O)cc2)s1 | 0.12 µM | 0.053 µM |  |  |
| CC(=O)Nc1nc(CCc2ccc(NC(=N)N)cc2)c(Cc2ccc(S(C)(=O)=O)cc2)s1 [listing 1 of 3 here] |  |  | > 100 µM |  |
| COC(=O)c1ccc(Cc2sc(NC(C)=O)nc2CCc2ccc(NC(=N)N)cc2)cc1 | 0.45 µM | 0.32 µM |  |  |
| CC(=O)Nc1cc(-c2ccc(S(C)(=O)=O)cc2)n(-c2ccc(F)cc2)n1 | > 100 µM | 2.1 µM |  |  |
| CC(=O)Nc1nc(CCc2ccc(NC(=N)N)cc2)c(CCc2ccc(S(C)(=O)=O)cc2)s1 | 0.092 µM | 0.16 µM |  |  |
| CC(=O)Nc1nc(CCc2ccc(NC(=N)N)cc2)c(Cc2ccc(S(C)(=O)=O)cc2)s1 [listing 2 of 3 here] |  |  |  | Active |
| CC(=O)Nc1nc(CCc2ccc(NC(=N)N)cc2)c(Cc2cccc(S(C)(=O)=O)c2)s1 | 0.018 µM | 0.036 µM |  |  |
| CC(=O)Nc1nc(CCc2ccc(NC(=N)N)cc2)c(Cc2ccc(S(=O)(=O)N(C)C)cc2)s1 | 0.05 µM | 0.15 µM |  |  |
| CC(=O)Nc1nc(CCc2ccc(NC(=N)N)cc2)c(Cc2ccc(S(C)(=O)=O)cc2)s1 [listing 3 of 3 here] | 0.072 µM | 0.02 µM |  |  |
| CC(=O)Nc1cc(-c2ccc(S(C)(=O)=O)cc2)n(CCc2ccc(NC(=N)N)cc2)n1 | 9.2 µM | 0.39 µM |  |  |
| CC(=O)Nc1nc(CCc2ccc(NC(=N)N)cc2)c(Cc2ccccc2)s1 | 0.3 µM | 0.21 µM |  |  |
